Reference: US20210196782A1 (priority 2015, published 2021)
Entries after “also recorded” stand apart in the source; their conditions may differ.

Columns and labels:
[1] = test system: primary cortical neurons
[2] = test system: mouse middle cerebral artery occlusion (MCAO) stroke model; conditions: in vivo
[3] = test system: primary cortical neurons; format: cell-based
[4] = test system: primary cortical neurons; remark: listed apart in the source
[5] = test system: primary cortical neurons; format: cell-based; remark: listed apart in the source
[6] = test system: primary cortical neurons; format: cell-based; remark: listed apart in the source
[7] = test system: mouse middle cerebral artery occlusion (MCAO) stroke model; conditions: in vivo; remark: listed apart in the source
[8] = test system: mouse middle cerebral artery occlusion (MCAO) stroke model; conditions: in vivo; remark: listed apart in the source

## O=C1CC[C@@]2(O)[C@H]3Cc4ccc(O)c5c4[C@@]2(CCN3CC2CC2)[C@H]1O5 [NTX, naltrexone]
[1]
  neuronal survival (MTT), NMDA, in words: did not show any significant effect
[2]
  neurological score, in words: did not improve any neurological score
[3]
  ROS production, in words: did not show a significant decrease in ROS production
[4]
  neuronal survival (MTT), in words: No statistical significant difference
[5]
  neuronal death (LDH), in words: No statistical significant difference
[6]
  neuronal death (LDH), NMDA, in words: did not show any significant effect

## C[C@@H](NC(=O)[C@@H](N)Cc1ccc(O)cc1)C(=O)NCC(=O)N[C@@H](Cc1ccccc1)C(=O)NNC(=O)[C@H](Cc1ccccc1)NC(=O)CNC(=O)[C@@H](C)NC(=O)[C@@H](N)Cc1ccc(O)cc1 [biphalin]
[1]
  neuronal survival (MTT), NMDA, in words: significantly improved relative neuronal survival
[1]; 3 h
  more neuronal survival (MTT), NMDA: 28.7%
[7]
  edema formation, in words: significantly decreased edema formation
  infarct formation, in words: significantly decreased; also recorded: significantly reduced infarct formation
  reduction in edema formation: 56.17%
  reduction in infarct ratio: 67.0%
[2]
  neurological score improvement: 25.5%
  neurological score, in words: improved neurological behavior
[3]
  ROS production, in words: significantly decreased ROS production
  less ROS production: 29.1%
[4]
  neuronal survival (MTT), in words: significantly increased neuronal survival
[4]; 3 h, 10 nM
  more neuronal survival (MTT): 42.6%
[5]
  less LDH release: 30.5%
  neuronal death (LDH), in words: significantly decreased neuronal cell death
[6]
  less LDH release, NMDA: 18.4%
  neuronal death (LDH), NMDA, in words: significantly decreased relative neuronal death
[8]
  Horizontal Activity: 760
  No. of Movements: 42
  Rest Time: 240 s
  Stereotpy Counts: 390
  Total Distance (CM): 650 CM
  Vertical Activity: 28
  locomotor parameters, in words: statistically significantly improved all the locomotor parameters
